Experimental data as given in patent US20250136722A1, “CYTOTOXICITY TARGETING CHIMERAS” (GLAXOSMITHKLINE INTELLECTUAL PROPERTY DEVELOPMENT LIMITED, priority 2021, published 2025).
Values joined by “and” are separate entries in the source; they are usually repeats but may differ in a detail not shown here. Equal values may be shown once.

Key:
[1] = biological target: human alpha1 nicotinic acetylcholine (nACh) receptor (Homo sapiens, UniProt P02708+Q07001); assay: Nicotinic acetylcholine receptor antagonism assay, IONFlux automated patch clamp (Example 203); format: cell-based; details: for IC50: nAChR antagonism, ACh stimulated, patch clamp; for Emax at 10 µM: maximum percentage antagonism at maximum concentration tested 10 μM
Chain of human alpha1 nicotinic acetylcholine (nACh) receptor (P02708 21-457): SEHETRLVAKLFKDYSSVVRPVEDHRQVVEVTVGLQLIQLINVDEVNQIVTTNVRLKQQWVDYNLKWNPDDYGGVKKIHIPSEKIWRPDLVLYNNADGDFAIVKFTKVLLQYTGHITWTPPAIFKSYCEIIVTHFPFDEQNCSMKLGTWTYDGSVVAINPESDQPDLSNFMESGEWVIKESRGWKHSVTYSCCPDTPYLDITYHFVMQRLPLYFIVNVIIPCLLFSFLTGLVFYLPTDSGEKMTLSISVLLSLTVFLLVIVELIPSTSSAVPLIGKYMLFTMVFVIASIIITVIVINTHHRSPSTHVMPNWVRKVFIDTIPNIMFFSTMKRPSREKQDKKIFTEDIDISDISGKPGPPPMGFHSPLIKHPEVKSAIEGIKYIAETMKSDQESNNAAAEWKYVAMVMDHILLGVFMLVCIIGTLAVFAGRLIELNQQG
Chain of human alpha1 nicotinic acetylcholine (nACh) receptor (P11230 24-501 partner): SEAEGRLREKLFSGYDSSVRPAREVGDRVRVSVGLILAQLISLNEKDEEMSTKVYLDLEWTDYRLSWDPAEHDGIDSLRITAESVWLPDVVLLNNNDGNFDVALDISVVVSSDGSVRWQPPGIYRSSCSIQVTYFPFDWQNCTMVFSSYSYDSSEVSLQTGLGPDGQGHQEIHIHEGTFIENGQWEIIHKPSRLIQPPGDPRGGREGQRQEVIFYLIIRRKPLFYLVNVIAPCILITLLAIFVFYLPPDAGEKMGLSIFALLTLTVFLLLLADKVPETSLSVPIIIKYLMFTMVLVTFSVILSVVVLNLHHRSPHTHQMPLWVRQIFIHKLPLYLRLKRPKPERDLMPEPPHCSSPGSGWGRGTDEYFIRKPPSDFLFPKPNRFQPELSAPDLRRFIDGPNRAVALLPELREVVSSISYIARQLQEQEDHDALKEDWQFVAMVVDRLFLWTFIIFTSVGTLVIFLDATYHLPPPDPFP
Chain of human alpha1 nicotinic acetylcholine (nACh) receptor (Q07001 22-517): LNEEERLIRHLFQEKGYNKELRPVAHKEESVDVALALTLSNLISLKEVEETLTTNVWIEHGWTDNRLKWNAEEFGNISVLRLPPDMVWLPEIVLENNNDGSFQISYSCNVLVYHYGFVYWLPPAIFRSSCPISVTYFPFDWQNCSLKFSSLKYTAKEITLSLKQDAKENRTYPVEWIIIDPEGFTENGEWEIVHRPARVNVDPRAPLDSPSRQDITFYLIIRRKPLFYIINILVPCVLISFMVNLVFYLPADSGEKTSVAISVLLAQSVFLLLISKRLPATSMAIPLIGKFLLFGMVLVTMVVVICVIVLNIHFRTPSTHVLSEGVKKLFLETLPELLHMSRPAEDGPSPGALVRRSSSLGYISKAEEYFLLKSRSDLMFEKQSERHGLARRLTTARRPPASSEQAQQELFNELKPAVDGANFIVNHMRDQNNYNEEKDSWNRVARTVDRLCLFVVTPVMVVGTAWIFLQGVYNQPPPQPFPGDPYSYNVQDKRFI
Procedure, shortened: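 Human α1 nAChR-expressing cells were preincubated with compound (top 10 μM or 100 μM), then stimulated with 10 mM ACh; peak currents were recorded by IONFlux automated patch clamp. Percent inhibition versus ACh-alone control was vehicle- and rundown-corrected, then fitted to give IC50, with maximal antagonism at the top concentration; recordings with control current <500 pA were excluded.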

[2] = biological target: Anti-cotinine antibody (SEQ ID NO: 11 / SEQ ID NO: 12, rabbit variable region with human IgG1 Fc domain); assay: Binding of anti-cotinine antibody to ARM compounds by SPR, Biacore T200, 37° C. (Example 202); details: pH 7.4, rabbit variable region/human IgG1 Fc antibody captured on protein A
Procedure, shortened: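 Antibody captured on protein A chip. Compounds injected (3-fold, 5-point, top 200 nM) at 100 μL/min with 200 s association and 2000 s dissociation, at 37° C. in HEPES pH 7.4 buffer with 1% DMSO. Double-referenced data fit to 1:1 kinetics. Kd = koff/kon, reported as pKd, averaged over runs.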

[3] = biological target: T1, CHOK1 cells engineered to overexpress human CCR2 (Homo sapiens, UniProt P41597); assay: Antibody dependent cellular cytotoxicity (ADCC) reporter assay (Example 199); format: cell-based; details: with anti-cotinine antibody SEQ ID NO: 11/12; CHOK1-human CCR2 target cells, Jurkat FcγRIIIa NFAT-luciferase reporter cells; 12-18 hours; read-out: ADCC Reporter Assay pEC50 (converted)
T1 construct: expressed in transfected cells; host or cells: CHOK1 cells
Procedure, shortened: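 CHOK1-hCCR2 target cells are co-incubated for 12–18 h with Jurkat FcγRIIIa/NFAT-luciferase reporter cells, ARM compound (1 pM–10 μM) and anti-cotinine antibody with a DE-mutant human IgG1 Fc (0.01–200 μg/mL). Luminescence is expressed as signal:background against no-compound wells; EC50 comes from nonlinear fit and is reported as pEC50, averaged across runs.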

Row | IC50 [1] | pKd of Antibody for ARM Compound of Formula (I) [2] | Emax at 33.33 µM ([1]; maximum percentage antagonism at maximum concentration tested 33.33 μM, read-out: Maximum Response (%)) | Emax at 10 µM ([1]; read-out: Maximum Response (%)) | Structure (SMILES) | Emax at 100 µM ([1]; maximum percentage antagonism at maximum concentration tested 100 μM, read-out: Maximum Response (%)) | EC50 [3]
1 | > 33300 nM | 9.199 | 48% |  | CN1C(=O)C[C@H](C(=O)NCCO[C@H]2CC[C@H](OCCCC(=O)N[C@H]3CC[C@H](C(=O)N[C@@H]4C[C@H](NC(C)(C)C)CC[C@@H]4N4CC[C@H](Nc5ncnc6ccc(C(F)(F)F)cc56)C4=O)CC3)CC2)[C@H]1c1cccnc1 [Example 10] |  | 3.16 nM
2 | > 10000 nM | 9.7475 |  | 7.3% | CN1C(=O)C[C@H](C(=O)NCCOCCOCCOCCOCCOCCC(=O)N[C@@H]2C[C@H](NC(C)(C)C)CC[C@@H]2N2CC[C@H](Nc3ncnc4ccc(C(F)(F)F)cc34)C2=O)[C@H]1c1cccnc1 [Example 37] |  | 
3 | > 10000 nM | 9.611 |  | -2.2% | CN1C(=O)C[C@H](C(=O)NCCOCCOCCOCCOCCOCCOCCC(=O)N[C@@H]2C[C@H](NC(C)(C)C)CC[C@@H]2N2CC[C@H](Nc3ncnc4ccc(C(F)(F)F)cc34)C2=O)[C@H]1c1cccnc1 [Example 38] |  | 

Row | Structure (SMILES) | IC50 [1] | pKd of Antibody for ARM Compound of Formula (I) [2] | Emax at 33.33 µM ([1]; maximum percentage antagonism at maximum concentration tested 33.33 μM, read-out: Maximum Response (%)) | Emax at 10 µM ([1]; read-out: Maximum Response (%)) | Emax at 100 µM ([1]; maximum percentage antagonism at maximum concentration tested 100 μM, read-out: Maximum Response (%)) | EC50 [3]
4 | CC(C)N(C)[C@@H]1CC[C@H](N2CC[C@H](Nc3ncnc4ccc(C(F)(F)F)cc34)C2=O)[C@H](NC(=O)[C@H]2CC[C@H](NC(=O)CCCO[C@H]3CC[C@H](OCCNC(=O)[C@H]4CC(=O)N(C)[C@@H]4c4cccnc4)CC3)CC2)C1 [Example 1, (2S,3S)-N-(2-(((1R,4S)-4-(4-(((1R,4R)-4-(((1R,2S,5R)-5-(Isopropyl(methyl)amino)-2-((S)-2-oxo-3-((6-(trifluoromethyl)quinazolin-4-yl)amino)pyrrolidin-1-yl)cyclohexyl)carbamoyl)cyclohexyl)amino)-4-oxobutoxy)cyclohexyl)oxy)ethyl)-1-methyl-5-oxo-2-(pyridin-3-yl)pyrrolidine-3-carboxamide] | 84600 nM | 9.654 |  |  | 25.6% | 3.25 nM and 6.61 nM
